Test results taken from patent publication US4175081A, “5-Substituted thiadiazole ureas” (priority 1977, dated 1979).

What was measured:
[1] = system: Johnson grass (JG); assay: Post-emergence herbicide test; format: in vivo, Sorgum helepense; settings: Sorghum halepense, 336 h, two weeks after treatment; for pest or weed control: 2 lb/acre; for pest or weed control at 4483.4 g/ha: 4 lb/acre
In short: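 Greenhouse pot-grown seedlings sprayed post-emergence at 8 lbs compound per acre (some at 4 lbs/acre) in 38 gallons per acre spray volume. Sub-irrigated thereafter. Injury/control rated visually two weeks after treatment.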

[2] = system: Amaranth pigweed (PW); assay: Pre-emergence herbicide test; format: in vivo, Amaranthus retroflexus; settings: 336 h, two weeks after treatment; for pest or weed control at 4483.4 g/ha: 4 lb/acre
In short: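 Pigweed was surface-seeded in potted soil one day before spraying at 8 lbs compound per acre, or 4 lbs/acre, in 38 gallons per acre. Pots were kept in the greenhouse with sub-irrigation only; injury or control was rated visually two weeks after treatment.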

[3] = system: Amaranth pigweed (PW); assay: Post-emergence herbicide test; format: in vivo, Amaranthus retroflexus; settings: 336 h, two weeks after treatment; for pest or weed control at 4483.4 g/ha: 4 lb/acre
In short: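 Pot-grown pigweed was sprayed post-emergence at the 1–2 true-leaf stage with compound at rates equivalent to 8 lbs per acre (formulations also prepared for 4 lbs/acre) in 38 gallons per acre, using a hood with fixed nozzle. Plants were sub-irrigated in the greenhouse, and injury or control was rated visually two weeks after treatment.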

[4] = system: Johnson grass (JG); assay: Pre-emergence herbicide test; format: in vivo, Sorgum helepense; settings: Sorghum halepense, 336 h, two weeks after treatment; for pest or weed control at 2241.7 g/ha: 2 lb/acre; for pest or weed control at 4483.4 g/ha: 4 lb/acre
In short: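 Pots seeded one day before spraying; compound applied pre-emergence at 8 lbs/acre (or 4 lbs/acre) in 38 gallons/acre spray volume. Sub-irrigated in greenhouse; injury/control rated visually two weeks after treatment.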

[5] = system: Barnyard grass (BG); assay: Pre-emergence herbicide test; format: in vivo; settings: Echinochloa crus-galli, 336 h, two weeks after treatment; for pest or weed control at 2241.7 g/ha: 2 lb/acre
In short: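 Barnyard grass surface-seeded in potting soil and sprayed pre-emergence one day after seeding, at 8 or 4 lb compound/acre in 38 gal/acre spray volume. Pots kept in greenhouse with sub-irrigation only; injury or control rated visually two weeks after treatment.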

[6] = system: Crabgrass (CG); assay: Post-emergence herbicide test; format: in vivo, Digitaria sanquinalis; settings: Digitaria sanguinalis, post-emergence, 336 h, two weeks after treatment; for pest or weed control: 2 lb/acre; for pest or weed control at 4483.4 g/ha: 4 lb/acre
In short: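 Crabgrass (Digitaria sanquinalis) was surface seeded individually in 3' plastic pots of potting soil, covered with screened soil, and watered by sub-irrigation in greenhouse trays. Planting was staggered so seedlings reached the target stage together. Post-emergence sprays were applied in a hood with a removable belt and fixed nozzle, and control was visually rated two weeks after treatment.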

[7] = system: Turnip (TP); assay: Post-emergence herbicide test; format: in vivo, Brassica sp.; settings: Brassica rapa, post-emergence, 336 h, two weeks after treatment; for pest or weed control at 2241.7 g/ha: 2 lb/acre; for pest or weed control at 4483.4 g/ha: 4 lb/acre
In short: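 A greenhouse post-emergence herbicide test on turnip. Seeds were sown on the surface of potting soil in 3' plastic pots, lightly covered with screened soil and watered from below. Planting was timed so seedlings had 1 or 2 true leaves above the cotyledons at spraying, done in a hood with a fixed nozzle. Control or injury was scored by eye after two weeks.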

[8] = system: Crabgrass (CG); assay: Pre-emergence herbicide test; format: in vivo, Digitaria sanquinalis; settings: Digitaria sanguinalis, pre-emergence, 336 h, two weeks after treatment; for pest or weed control: 2 lb/acre; for pest or weed control at 4483.4 g/ha: 4 lb/acre
In short: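 Crabgrass (Digitaria sanquinalis) was surface seeded in 3' plastic pots of potting soil, covered with screened soil, and watered by sub-irrigation in greenhouse trays. Pots were seeded one day before spraying in a hood with a moving belt and fixed nozzle. Plants stayed in the greenhouse on sub-irrigation, and pre-emergence control was rated visually two weeks after treatment.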

[9] = system: Corn (CN); assay: Pre-emergence herbicide test; format: in vivo; settings: Zea mays, 336 h, two weeks after treatment; for pest or weed control at 2241.7 g/ha: 2 lb/acre; for pest or weed control at 4483.4 g/ha: 4 lb/acre
In short: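 Four corn seeds per pot, sown at seed-diameter depth one day before spraying, got soil surface treatment at 8 lbs/acre (4 lbs/acre formulations also prepared) in 38 gallons/acre. Pots were greenhouse-held with sub-irrigation only. Injury or control was scored visually two weeks after treatment.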

[10] = system: Turnip (TP); assay: Pre-emergence herbicide test; format: in vivo, Brassica sp.; settings: Brassica rapa, pre-emergence, 336 h, two weeks after treatment; for pest or weed control at 2241.7 g/ha: 2 lb/acre; for pest or weed control at 4483.4 g/ha: 4 lb/acre
In short: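 Turnip (Brassica sp.) seeds were surface sown in 3' plastic pots of potting soil, covered with a thin layer of screened soil, and sub-irrigated in greenhouse trays. Pots were seeded one day ahead of treatment, sprayed pre-emergence under a hood with a fixed nozzle and moving belt, then kept in the greenhouse.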

[11] = system: Barnyard grass (BG); assay: Post-emergence herbicide test; format: in vivo; settings: Echinochloa crus-galli, 336 h, two weeks after treatment; for pest or weed control at 2241.7 g/ha: 2 lb/acre
In short: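 Greenhouse pot-grown barnyard grass seedlings sprayed post-emergence at 8 lbs active compound per acre (some at 4 lbs/acre) in 38 gallons per acre, then sub-irrigated. Injury or control rated visually two weeks after treatment.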

[12] = system: Cotton (CT); assay: Post-emergence herbicide test; format: in vivo, Gossypium hirsutum var. DPL smooth leaf; settings: Gossypium hirsutum, post-emergence, 336 h, two weeks after treatment; for pest or weed control at 2241.7 g/ha: 2 lb/acre; for pest or weed control at 4483.4 g/ha: 4 lb/acre
In short: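 Cotton (Gossypium hirsutum var. DPL smooth leaf) was grown in 3' plastic pots of potting soil, four seeds per pot, planted at a depth equal to the seed diameter and watered by sub-irrigation. At the stage of expanded cotyledons with the first true leaf 1' long, plants were sprayed post-emergence in a hood with a fixed nozzle over a moving belt. Percent control was rated visually two weeks later.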

[13] = system: Corn (CN); assay: Post-emergence herbicide test; format: in vivo; settings: Zea mays, 336 h, two weeks after treatment; for pest or weed control: 2 lb/acre; for pest or weed control at 4483.4 g/ha: 4 lb/acre
In short: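 Greenhouse seedlings grown in potting soil and sprayed post-emergence at 8 lbs compound/acre (formulations also made for 4 lbs/acre) in 38 gallons/acre spray volume. Watering by sub-irrigation only. Injury or control rated visually two weeks after treatment.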

[14] = system: Cotton (CT); assay: Pre-emergence herbicide test; format: in vivo, Gossypium hirsutum var. DPL smooth leaf; settings: Gossypium hirsutum, 336 h, two weeks after treatment; for pest or weed control at 2241.7 g/ha: 2 lb/acre; for pest or weed control at 4483.4 g/ha: 4 lb/acre
In short: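 Crop and weed species seeded one day before treatment, then sprayed pre-emergence at 8 lbs actual compound per acre (also 4 lbs/acre formulations) in 38 gallons per acre. Pots kept in greenhouse with sub-irrigation only; injury or control visually rated two weeks after treatment.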

[15] = system: Bean (BN); assay: Pre-emergence herbicide test; format: in vivo, Phaseolus vulgaris var. Black Valentine; settings: Phaseolus vulgaris, 336 h, two weeks after treatment; for pest or weed control at 2241.7 g/ha: 2 lb/acre; for pest or weed control at 4483.4 g/ha: 4 lb/acre
In short: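 Black Valentine bean was seeded in potting soil one day before spraying. Compound was applied pre-emergence at 8 lbs/acre (also 4 lbs/acre) in 38 gallons per acre. Plants were sub-irrigated and injury or control was rated visually after two weeks.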

[16] = system: Bean (BN); assay: Post-emergence herbicide test; format: in vivo, Phaseolus vulgaris var. Black Valentine; settings: Phaseolus vulgaris, post-emergence, 336 h, two weeks after treatment; for pest or weed control at 2241.7 g/ha: 2 lb/acre; for pest or weed control at 4483.4 g/ha: 4 lb/acre
In short: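 Snapbean (Phaseolus vulgaris var. Black Valentine) was tested post-emergence. Four seeds were sown in 3' plastic pots of potting soil at a depth equal to the seed diameter, then sub-irrigated in greenhouse trays. Planting dates were staggered so plants were sprayed once primary leaves had expanded, with the growing point at the primary leaf nodes.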

CCCSc1nnc(N(C)C(=O)NC)s1 [Example 69]
50%: pest or weed control at 8966.8 g/ha ([9]; 8 lb/acre) | pest or weed control at 4483.4 g/ha [10] | pest or weed control at 4483.4 g/ha [13] | pest or weed control at 2241.7 g/ha [14]
40%: pest or weed control at 4483.4 g/ha [4] | pest or weed control at 2241.7 g/ha [5]
30%: pest or weed control at 2241.7 g/ha [9] | pest or weed control at 4483.4 g/ha [14]
100%: pest or weed control at 8966.8 g/ha ([1]; 8 lb/acre) | pest or weed control at 4483.4 g/ha [2] | pest or weed control at 8966.8 g/ha ([2]; 8 lb/acre) | pest or weed control at 4483.4 g/ha [3] | pest or weed control at 8966.8 g/ha ([3]; 8 lb/acre) | pest or weed control [6] | pest or weed control at 8966.8 g/ha ([6]; 8 lb/acre) | pest or weed control at 2241.7 g/ha [7] | pest or weed control at 4483.4 g/ha [7] | pest or weed control at 8966.8 g/ha ([7]; 8 lb/acre) | pest or weed control at 8966.8 g/ha ([8]; 8 lb/acre) | pest or weed control at 8966.8 g/ha ([10]; 8 lb/acre) | pest or weed control at 2241.7 g/ha [12] | pest or weed control at 4483.4 g/ha [12] | pest or weed control at 8966.8 g/ha ([12]; 8 lb/acre) | pest or weed control at 8966.8 g/ha ([13]; 8 lb/acre) | pest or weed control at 8966.8 g/ha ([15]; 8 lb/acre) | pest or weed control at 2241.7 g/ha [16] | pest or weed control at 4483.4 g/ha [16] | pest or weed control at 8966.8 g/ha ([16]; 8 lb/acre)
70%: pest or weed control [1] | pest or weed control at 8966.8 g/ha ([4]; 8 lb/acre)
0%: pest or weed control at 4483.4 g/ha [9] | pest or weed control at 2241.7 g/ha [15] | pest or weed control at 4483.4 g/ha [15]
20%: pest or weed control at 2241.7 g/ha [4]
90%: pest or weed control at 4483.4 g/ha [6] | pest or weed control [8] | pest or weed control at 4483.4 g/ha [8] | pest or weed control at 2241.7 g/ha [10] | pest or weed control at 2241.7 g/ha [11] | pest or weed control at 8966.8 g/ha ([14]; 8 lb/acre)
60%: pest or weed control at 4483.4 g/ha ([5]; 4 lb/acre)
80%: pest or weed control at 4483.4 g/ha [1] | pest or weed control at 4483.4 g/ha ([11]; 4 lb/acre) | pest or weed control [13]

CNC(=O)Nc1nnc(C(F)(F)C(F)(F)F)s1 [Example 68]
30%: pest or weed control at 4483.4 g/ha [4] | pest or weed control at 2241.7 g/ha [5] | pest or weed control at 2241.7 g/ha [9]
60%: pest or weed control at 2241.7 g/ha [10] | pest or weed control at 4483.4 g/ha [10] | pest or weed control at 2241.7 g/ha [11] | pest or weed control at 2241.7 g/ha [14]
80%: pest or weed control [1] | pest or weed control at 4483.4 g/ha [1] | pest or weed control at 2241.7 g/ha [12]
100%: pest or weed control at 2241.7 g/ha ([2]; 2 lb/acre) | pest or weed control at 4483.4 g/ha [2] | pest or weed control at 2241.7 g/ha ([3]; 2 lb/acre) | pest or weed control at 4483.4 g/ha [3] | pest or weed control at 4483.4 g/ha [6] | pest or weed control at 2241.7 g/ha [7] | pest or weed control at 4483.4 g/ha [7] | pest or weed control at 4483.4 g/ha [12] | pest or weed control at 4483.4 g/ha [13] | pest or weed control at 4483.4 g/ha [15] | pest or weed control at 4483.4 g/ha [16]
20%: pest or weed control at 2241.7 g/ha [4]
0%: pest or weed control at 2241.7 g/ha [15]
50%: pest or weed control [8] | pest or weed control at 4483.4 g/ha [9] | pest or weed control [13]
90%: pest or weed control [6] | pest or weed control at 4483.4 g/ha [8] | pest or weed control at 4483.4 g/ha [14] | pest or weed control at 2241.7 g/ha [16]
